Measurements taken from the OPERA property sets (Mansouri et al. 2018).
Where a SMILES comes first, the peptide text is derived from it.

Point of comparison: `CCNC(=O)NS(=O)(=O)c1cnccc1NC1CCCCCCC1`, logP 3.57. Against it:
- CSc1ccc2nc(-c3ccc(N)cc3)cn2c1 — lower, 2.9
- CC(C)NCC(O)CN1C(=O)COc2ccccc21 (configuration not stated) — lower, 1.45
- Cc1ccc(CO)c(C=NNC(=O)c2ccc([N+](=O)[O-])cc2)c1O — lower, 3.03
- O=C1N=C(N2CCOCC2)CN1Cc1ccc(Br)cc1 — lower, 1.4
- CC(C)(C)Nc1nc(N)nc(Cl)n1 — lower, 1.94
- OC(CNCC(O)C1CCc2cc(F)ccc2O1)C1CCc2cc(F)ccc2O1 (configuration not stated) — higher, 4.04
- Cc1nc2c3c(c(C(=O)NC4CCC4)cn2c1C)CCC(c1ccccc1)O3 (configuration not stated) — higher, 4.5
- OCCCCCCCCNc1ncnc2c1ncn2C1OC(CO)C(O)C1O (configuration not stated) — lower, 1.3
- O=C1Nc2ccc3cc4ccccc4nc3c2CO1 — lower, 1.64
- COc1ccccc1NC(=O)OCCN1CCCCC1 — lower, 3.11
- CCCc1nc(NCN2CCCC2=O)nc(N2CCOCC2)n1 — lower, 1.62
- CCOP(=O)(OCC)C(C)(C)[N+]([O-])=Cc1ccncc1 — lower, 0.32
- CCOC(=O)OC(C)C1=CCSC2C(NC(=O)C(=NOC)c3csc(N)n3)C(=O)N12 (configuration not stated) — lower, 0.96
- CC1=C2C3OC(=O)C(C)C3C(O)C(O)C2(C)C=CC1=O (configuration not stated) — lower, -0.7
- COc1ccc(C2=NC(C(=O)O)CS2)c(O)c1 (configuration not stated) — lower, 1.5
- Cn1c([N+](=O)[O-])cnc1C=NNC(N)=S — lower, 0.65
- O=C1CCC(=O)N1c1c(Cl)cccc1Cl — lower, 0.57
- COC(=O)C(C)NP(=O)(OCC1C=CC(n2cc(C)c(=O)[nH]c2=O)O1)Oc1ccc(C(F)(F)F)cc1 (configuration not stated) — lower, 1.57
- OCCCCCCCCCNc1[nH]cnc2ncnc1-2 — lower, 2.75
- CCOc1ccc(N)c(OCC)c1 — lower, 2.19
- c1ccc2c(c1)Cc1ncccc1-2 — lower, 2.59
- CCCCCCCNCc1ccc(C)cc1 — higher, 5.12
- CN(C)CCOc1ccc(Cl)cc1 — lower, 3.05
- CCC(=O)NCCCCCN(O)C(=O)CCC(=O)NCCCCCN(O)C(=O)CCC(=O)NCCCCCN(O)C(C)=O — lower, 0.17
- Cc1ccnc2c1NC(=O)c1cccnc1N2C1CC1 — lower, 1.81
- COC(=O)C(C)NP(=O)(OCC1C=CC(n2cc(C)c(=O)[nH]c2=O)O1)Oc1ccc(Br)cc1 (configuration not stated) — lower, 1.6
- C=C(C)CC(C)(CCC=C(C)C)OC(C)=O (configuration not stated) — higher, 4.36
- NC(Cc1c[nH]c2ccccc12)C(=O)NC(Cc1ccc(O)cc1)C(=O)O (configuration not stated) — lower, -1.13
- COc1ccc([N+](=O)[O-])c(C)c1 — lower, 2.32
- O=[N+]([O-])c1ccc(CSc2ncnc3c(C4OC(CO)C(O)C4O)n[nH]c23)cc1 (configuration not stated) — lower, 0.5
- CCCN(CCC)C1CCc2c(cccc2OC)C1 (configuration not stated) — higher, 4.24
- Clc1cccc(N2CCN(CCn3nc4ccccc4n3)CC2)c1 — higher, 4.1
- CC(=O)NC(CCCNC(=O)N(CCCl)N=O)C(=O)NCc1ccccc1 (configuration not stated) — lower, 1.33
- CCCNc1ncnc2c1ncn2C1OC(CO)C(O)C1O (configuration not stated) — lower, 0.54
- COC(=O)c1cccc(C)c1S(=O)(=O)NC(=O)Nc1nc(OCC(F)(F)F)nc(N(C)C)n1 — within 0.2 log units, 3.56
- c1ccc(Cn2cccn2)cc1 — lower, 1.78
- CN(C1=NC(=O)N(c2ccc(Cl)cc2)C1)C1CCCCC1 — lower, 2.7
- C=CCN(N=O)C(=O)N(CCCC(NC(C)=O)C(=O)NCc1ccccc1)Cc1ccccc1 (configuration not stated) — lower, 2.16
- Cc1coc2c(C)c3oc(=O)ccc3cc12 — lower, 2.81
- Cc1cccn2c1nc1ccc(N)nc12 — lower, 1.75
- COc1ccc2cc(C(C)C(=O)OCCOC(C)=O)ccc2c1 (configuration not stated) — within 0.2 log units, 3.5
- COc1ccc(C2Cc3cc(C(F)(F)F)ccc3N(CCN(C)C)C(=O)C2NC(C)=O)cc1 (configuration not stated) — within 0.2 log units, 3.6
- CC(C)(C)NCC(COc1nsnc1N1CCOCC1)OC(=O)C1CC1 (configuration not stated) — within 0.2 log units, 3.54
- NC1=NCC(CN2CCOCC2)O1 (configuration not stated) — lower, -0.22
- CC(C)C1(C)N=C(c2ncc(Br)cc2C(=O)O)NC1=O (configuration not stated) — lower, 1.19
- O=C(O)c1cccc(F)c1F — lower, 1.88
- COc1ccc(C2Cc3cc(OC(F)F)ccc3N(CCN(C)C)C(=O)C2OC(C)=O)cc1 (configuration not stated) — higher, 3.8
- Nc1ccn(C2CC(CO)C(O)C2O)c(=O)n1 (configuration not stated) — lower, -2.41
- CN(C)C(=O)Nc1cccc(OCc2ccc(Cl)cc2Cl)c1 — higher, 4.1
- CC(C)CC(NC(=O)C(Cc1ccc(O)cc1)NC(=O)C(N)Cc1ccc(O)cc1)C(=O)O (stereo not drawn) (H-Tyr-Tyr-Leu-OH; configuration not given here) — lower, -1.38
- ON=Cc1nc(-c2cccs2)no1 — lower, 2.47
- CCOC(=O)c1cnc2ccc(C)cn2c1=O — lower, 0.9
- COC(=O)c1c(N2CCOCC2)c(-c2ccc(Cl)cc2)cn1C(C)=O — within 0.2 log units, 3.5
- CON(C)C(=O)Nc1ccc(C2CCCCC2)cc1 — higher, 4.08
- C1CCSC1 — lower, 1.61
- O=C1Nc2ccc(Cl)cc2C(c2ccccc2F)=NC1O (configuration not stated) — lower, 1.81
- CCN(CC)CCC(=O)Nc1ccc(N)cc1 — lower, 0.8
- CC(C)CC(NC(=O)C(NC(=O)C(N)C(C)O)C(C)C)C(=O)O (stereo not drawn) (H-Thr-Val-Leu-OH; configuration not given here) — lower, -1.97
- Cc1cc2ncccc2c2nc(N)n(C)c12 — lower, 1.98
- CN(C)C1=NC(=O)N(c2ccc(Cl)cc2)C1 — lower, 1.6
- CCCCC(Nc1ccc([N+](=O)[O-])cc1[N+](=O)[O-])C(=O)O (configuration not stated) — lower, 3.25
- CCCCCCN=C=S — higher, 3.98
- COC(=O)C(C)NP(=O)(OCC1C=CC(n2cc(C)c(=O)[nH]c2=O)O1)Oc1ccc(C(C)=O)cc1 (configuration not stated) — lower, 0.9
- CS(=O)(=O)c1cccc2nc(N)nc(N)c12 — lower, 0.63
- COc1ccc2c(c1)OCN(CCO[N+](=O)[O-])C2=O — lower, 2.09
- Nc1nnnn1-c1ccc([N+](=O)[O-])cc1 — lower, 0.77
- COc1c2c(cc3c1-c1ccc(OC)c(=O)cc1C(NC(C)=O)CC3)OCO2 (configuration not stated) — lower, 1.6
- CCC(C)Nc1nc(N)nc(Cl)n1 (configuration not stated) — lower, 1.86
- Cc1cc2ccc(=O)oc2c2c(C)coc12 — lower, 2.88
- c1ccc2c(c1)OCCOCCOc1ccccc1OCCO2 — lower, 2.21
- COC(=O)C1=C(C)NC(C)=C(C(=O)OC(C)C)C1c1cccc2c1OCO2 (configuration not stated) — higher, 4.15
- CCCNC(C)C(=O)Nc1c(C)csc1C(=O)OC (configuration not stated) — lower, 1.89
- O=C(NO)C(Cc1ccccc1)C(=O)NCc1ccc(F)cc1 (configuration not stated) — lower, 1.8
- COC(=O)C(C)S(=O)(=O)c1ccc([N+](=O)[O-])cc1 (configuration not stated) — lower, 1.06
- O=c1cc(-c2ccccc2)on1-c1ccc(Cl)cc1 — higher, 4.1
- CCOC(=O)C1=C(C)NC(C)=C(C(=O)OCC)C1c1cccc2c1OCO2 — higher, 4.32
- Cc1ccc(CO)c(C=NNC(=O)c2ccc(O)cc2)c1O — lower, 2.56
- Cc1cc2c(ccc3c(C)cc(=O)oc32)o1 — lower, 3.08
- CCOc1cc2ncnc(Nc3cccc(Br)c3)c2cc1OCC — higher, 4.4
- CC(C)CC(N)C(=O)NC(CC(C)C)C(=O)NC(CC(C)C)C(=O)O (stereo not drawn) (H-Leu-Leu-Leu-OH; configuration not given here) — lower, -0.94
- CCc1ccc2c(c1)OCCOCCOCCOCCOCCO2 — lower, 0.98
- Cc1cc(=O)n(C)c2c1cc(C)c1occ(C)c12 — lower, 3.3
- COc1ccccc1N1CCN(c2ccc(Nn3c(C)ccc3C)nn2)CC1 — within 0.2 log units, 3.61
- CC(C)(C)SSc1ncc[nH]1 — lower, 2.56
- OCCCCCCNc1ncnc2nc[nH]c12 — lower, 1.14
- CS(=O)(=O)CC(=O)C=NO — lower, -0.69
- CC(C)(C)[N+]([O-])=Cc1cccc([N+](=O)[O-])c1 — lower, 1.3
- O=C(O)CCCCON=C(c1cncnc1)c1cccc(C(F)(F)F)c1 — lower, 3.26
- CCCc1nc(NC(=O)c2ccccc2)nc(N2CCOCC2)n1 — lower, 1.61
- Clc1cccc(CNc2[nH]cnc3ncnc2-3)c1 — lower, 2.89
- Cc1c(O)c(=O)ccn1CCCO — lower, -0.88
